The source of these data is patent US20250215029A1 (Recludix Pharma, Inc., priority 2022, published 2025).

One experiment has as its target T1, pY705-STAT3 in PBMC (Homo sapiens, UniProt P40763).
T1 construct: Cryopreserved Peripheral Blood Mononuclear Cells (PBMC) are from AllCells; host or cells: cryopreserved PBMC
Description: MSD-pSTAT-PBMC Assay (pSTAT3, IL-6 stimulated). The format is cell-based. The note with it: PBMC, compound 3 hrs, then 10 ng/mL IL-6 for 10 min; Table 115; read-out: STAT3. The method in brief: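 Cells are preincubated with compound for 3 hrs, then stimulated for 10 min, IL-4 at 1 ng/mL driving STAT6 phosphorylation and IL-6 at 10 ng/mL driving STAT3. Phospho-STAT in lysates is quantified by MSD immunoassay, and IC50 is fitted after subtracting unstimulated wells.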

For a further experiment, the target named is T2, pY641-STAT6 in PBMC (Homo sapiens, UniProt P42226).
T2 construct: Cryopreserved Peripheral Blood Mononuclear Cells (PBMC) are from AllCells; host or cells: cryopreserved PBMC
T2 sequence (P42226 1-847): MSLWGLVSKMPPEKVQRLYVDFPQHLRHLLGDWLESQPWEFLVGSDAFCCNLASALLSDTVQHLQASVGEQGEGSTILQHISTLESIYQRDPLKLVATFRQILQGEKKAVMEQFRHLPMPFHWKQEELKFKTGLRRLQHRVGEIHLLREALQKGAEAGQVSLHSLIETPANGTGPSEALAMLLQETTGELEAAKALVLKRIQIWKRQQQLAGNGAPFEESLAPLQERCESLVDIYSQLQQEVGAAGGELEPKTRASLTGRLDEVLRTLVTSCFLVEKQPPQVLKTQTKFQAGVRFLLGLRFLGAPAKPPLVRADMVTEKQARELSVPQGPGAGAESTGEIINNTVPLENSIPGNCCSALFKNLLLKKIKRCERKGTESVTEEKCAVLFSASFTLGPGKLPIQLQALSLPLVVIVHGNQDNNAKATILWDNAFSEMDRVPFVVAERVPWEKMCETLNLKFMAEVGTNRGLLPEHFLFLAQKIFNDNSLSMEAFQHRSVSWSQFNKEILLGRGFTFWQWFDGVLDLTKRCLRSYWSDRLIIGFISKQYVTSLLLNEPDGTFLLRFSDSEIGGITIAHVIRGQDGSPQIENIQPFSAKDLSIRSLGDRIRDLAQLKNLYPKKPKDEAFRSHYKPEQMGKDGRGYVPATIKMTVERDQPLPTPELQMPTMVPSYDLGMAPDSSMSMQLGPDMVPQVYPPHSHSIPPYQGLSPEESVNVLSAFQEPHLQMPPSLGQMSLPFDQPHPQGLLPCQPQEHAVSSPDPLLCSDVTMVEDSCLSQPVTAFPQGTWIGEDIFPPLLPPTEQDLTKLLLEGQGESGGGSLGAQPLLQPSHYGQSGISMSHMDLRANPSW
Nature of the experiment: MSD-pSTAT-PBMC Assay (pSTAT6, IL-4 stimulated). The note with it: compound 3 hrs, then 1 ng/mL IL-4 for 10 min, Table 115. The format is cell-based. The method in brief:
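MSD electrochemiluminescence read-out: total STAT captured, probed with anti-pY641-STAT6 or anti-pY705-STAT3. Human PBMC, 3 h compound pretreatment, 10 min stimulation (IL-4 1 ng/mL or IL-6 10 ng/mL). Unstimulated signal subtracted, DMSO-normalized, variable-slope IC50.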

SMILES strings stand for the structures. Read-outs that look alike come from different tables or passages of the source. Where only a bound is given, the exact number is not on record here.

T1 sequence (P40763 whole entry): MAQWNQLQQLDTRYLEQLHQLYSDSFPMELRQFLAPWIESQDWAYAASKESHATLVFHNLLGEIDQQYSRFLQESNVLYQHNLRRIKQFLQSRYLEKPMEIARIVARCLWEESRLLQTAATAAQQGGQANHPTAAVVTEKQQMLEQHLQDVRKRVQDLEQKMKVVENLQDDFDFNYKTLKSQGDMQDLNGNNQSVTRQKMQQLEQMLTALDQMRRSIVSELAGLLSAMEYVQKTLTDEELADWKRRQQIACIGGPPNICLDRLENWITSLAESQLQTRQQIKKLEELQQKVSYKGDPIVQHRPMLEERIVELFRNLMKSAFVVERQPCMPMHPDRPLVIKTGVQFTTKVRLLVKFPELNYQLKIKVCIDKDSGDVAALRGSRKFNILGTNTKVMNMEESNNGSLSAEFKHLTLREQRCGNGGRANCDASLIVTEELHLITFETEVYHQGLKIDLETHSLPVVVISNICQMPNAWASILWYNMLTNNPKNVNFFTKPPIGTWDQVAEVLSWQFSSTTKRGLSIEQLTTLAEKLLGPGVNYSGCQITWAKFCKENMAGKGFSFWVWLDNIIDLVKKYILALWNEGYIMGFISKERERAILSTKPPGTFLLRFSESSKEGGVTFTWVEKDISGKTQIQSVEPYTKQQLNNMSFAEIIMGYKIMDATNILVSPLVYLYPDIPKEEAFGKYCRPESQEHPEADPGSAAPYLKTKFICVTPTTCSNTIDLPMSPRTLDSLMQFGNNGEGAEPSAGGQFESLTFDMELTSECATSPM

Turning to `CCCOC(=O)[C@H](C)NP(=O)(Oc1ccccc1)C(F)c1ccc2sc(C(=O)N[C@H]3CCC[C@H]4CC[C@@H](C(=O)N5CC(c6cccnc6)C5)N4C3=O)cc2c1` (stereo partly drawn) [Compound 415, propyl ((fluoro(2-(((3S,6S,9aS)-5-oxo-3-(3-(pyridin-3-yl)azetidine-1-carbonyl)octahydro-1H-pyrrolo[1,2-a]azepin-6-yl)carbamoyl)benzo [b]thiophen-5-yl)methyl)(phenoxy)phosphoryl)-L-alaninate], the IC50 was below 100 nM on pY705-STAT3 in PBMC and 1000 to 3000 nM at pY641-STAT6 in PBMC (STAT6, PBMC).
In the case of `CCCOC(=O)[C@H](C)NP(=O)(Oc1ccccc1)C(F)(F)c1ccc2ccc(C(=O)N[C@H]3CCCC[C@H]4CC[C@@H](C(=O)N5C[C@H](c6cc[nH]c(=O)c6)CC56CC6)N4C3=O)cc2c1` (stereo partly drawn) [Compound 419, propyl ((difluoro(7-(((3S,6S,10aS)-5-oxo-3-((S)-6-(2-oxo-1,2-dihydropyridin-4-yl)-4-azaspiro[2.4]heptane-4-carbonyl)decahydropyrrolo[1,2-a]azocin-6-yl)carbamoyl)naphthalen-2-yl)methyl)(phenoxy)phosphoryl)-L-alaninate], the IC50 on pY705-STAT3 in PBMC was above 3000 nM; against pY641-STAT6 in PBMC (STAT6, PBMC), 100 to 1000 nM.
Turning to `CCCOC(=O)[C@H](C)NP(=O)(Cc1ccc2ccc(C(=O)N[C@H]3CCCC[C@H]4CC[C@@H](C(=O)N5CC(c6ccccc6)CC56CC6)N4C3=O)cc2c1)Oc1ccccc1` (stereo partly drawn) [Compound 421, propyl (((7-(((3S,6S,10aS)-5-oxo-3-(6-phenyl-4-azaspiro[2.4]heptane-4-carbonyl)decahydropyrrolo[1,2-a]azocin-6-yl)carbamoyl)naphthalen-2-yl)methyl)(phenoxy)phosphoryl)-L-alaninate], the IC50 on pY705-STAT3 in PBMC is above 3000 nM; at pY641-STAT6 in PBMC (STAT6, PBMC), 100 to 1000 nM.
For `CCCOC(=O)[C@H](C)NP(=O)(Oc1ccccc1)[C@H](F)c1ccc2sc(C(=O)N[C@H]3CCCC[C@H]4CC[C@@H](C(=O)N5C[C@H](c6ccccc6)[C@@H](C#N)C56CC6)N4C3=O)cc2c1` (stereo partly drawn) [Compound 485, propyl (((S)-(2-(((3S,6S,10aS)-3-((6S,7R)-7-cyano-6-phenyl-4-azaspiro[2.4]heptane-4-carbonyl)-5-oxodecahydropyrrolo [1,2-a]azocin-6-yl)carbamoyl)benzo [b]thiophen-5-yl)fluoromethyl) (phenoxy)phosphoryl)-L-alaninate], the IC50 on pY705-STAT3 in PBMC is above 3000 nM; on pY641-STAT6 in PBMC (STAT6, PBMC), below 100 nM.
Turning to `CCCC(=O)SCCOP(=O)(OCCSC(=O)CCC)C(F)(F)c1ccc2sc(C(=O)N[C@H]3CCC[C@H]4CC[C@@H](C(=O)N5CC(c6ncccn6)C5)N4C3=O)cc2c1` [Compound 940, S,S′-((((difluoro(2-(((3S,6S,9aS)-5-oxo-3-(3-(pyrimidin-2-yl)azetidine-1-carbonyl)octahydro-1H-pyrrolo[1,2-a]azepin-6-yl)carbamoyl)benzo [b]thiophen-5-yl)methyl)phosphoryl)bis(oxy))bis(ethane-2,1-diyl)) dibutanethioate], the IC50 is below 100 nM at pY705-STAT3 in PBMC and 100 to 1000 nM at pY641-STAT6 in PBMC (PBMC, read-out: STAT6).
With `CCCOC(=O)[C@H](C)NP(=O)(Oc1ccccc1)[C@@H](F)c1ccc2sc(C(=O)N[C@H]3CCC[C@H]4CC[C@@H](C(=O)N5CC(c6cnccc6N(C)C)C5)N4C3=O)cc2c1` (stereo partly drawn) [Compound 942, propyl (((R)-(2-(((3S,6S, 9aS)-3-(3-(4-(dimethylamino)pyridin-3-yl)azetidine-1-carbonyl)-5-oxooctahydro-1H-pyrrolo[1,2-a]azepin-6-yl)carbamoyl)benzo [b]thiophen-5-yl)fluoromethyl) (phenoxy)phosphoryl)-L-alaninate], the IC50 on pY705-STAT3 in PBMC is 100 to 1000 nM; on pY641-STAT6 in PBMC (STAT6, PBMC) it was above 3000 nM.
Take `CCCOC(=O)[C@H](C)NP(=O)(Oc1ccccc1)C(F)c1ccc2sc(C(=O)N[C@H]3CCC[C@H]4CC[C@@H](C(=O)N5CC(c6cnccc6F)C5)N4C3=O)cc2c1` (stereo partly drawn) [Compound 943, propyl ((fluoro(2-(((3S,6S,9aS)-3-(3-(4-fluoropyridin-3-yl)azetidine-1-carbonyl)-5-oxooctahydro-1H-pyrrolo[1,2-a]azepin-6-yl)carbamoyl)benzo [b]thiophen-5-yl)methyl)(phenoxy)phosphoryl)-L-alaninate]: the IC50 on pY705-STAT3 in PBMC is below 100 nM; on pY641-STAT6 in PBMC (STAT6, PBMC), above 3000 nM.
On to `CC(C)CC(=O)SCCOP(=O)(OCCSC(=O)CC(C)C)C(F)(F)c1ccc2sc(C(=O)N[C@H]3CCC[C@H]4CC[C@@H](C(=O)N5CC(c6ncccn6)C5)N4C3=O)cc2c1` [Compound 961, S,S′-((((difluoro(2-(((3S,6S,9aS)-5-oxo-3-(3-(pyrimidin-2-yl)azetidine-1-carbonyl)octahydro-1H-pyrrolo[1,2-a]azepin-6-yl)carbamoyl)benzo [b]thiophen-5-yl)methyl)phosphoryl)bis(oxy))bis(ethane-2,1-diyl)) bis(3-methylbutanethioate)], for which the IC50 on pY705-STAT3 in PBMC is below 100 nM; on pY641-STAT6 in PBMC (PBMC, read-out: STAT6), 1000 to 3000 nM.
In the case of `CC(C)(C)C(=O)SCCOP(=O)(OCCSC(=O)C(C)(C)C)C(F)(F)c1ccc2sc(C(=O)N[C@H]3CCC[C@H]4CC[C@@H](C(=O)N5CC(c6ncccn6)C5)N4C3=O)cc2c1` [Compound 962, S,S′-((((difluoro(2-(((3S,6S,9aS)-5-oxo-3-(3-(pyrimidin-2-yl)azetidine-1-carbonyl)octahydro-1H-pyrrolo[1,2-a]azepin-6-yl)carbamoyl)benzo [b]thiophen-5-yl)methyl)phosphoryl)bis(oxy))bis(ethane-2,1-diyl))bis(2,2-dimethyl-propanethioate)], the IC50 on pY705-STAT3 in PBMC is below 100 nM; on pY641-STAT6 in PBMC (PBMC, read-out: STAT6) it was above 3000 nM.
As to `CCCOC(=O)[C@H](C)NP(=O)(Cc1ccc2sc(C(=O)N[C@H]3CCC[C@H]4CC[C@@H](C(=O)N5CC(c6cnccc6N(C)C)C5)N4C3=O)cc2c1)Oc1ccccc1` (stereo partly drawn) [Compound 973, propyl (((2-(((3S,6S,9aS)-3-(3-(4-(dimethylamino)pyridin-3-yl)azetidine-1-carbonyl)-5-oxooctahydro-1H-pyrrolo[1,2-a]azepin-6-yl)carbamoyl)benzo [b]thiophen-5-yl)methyl)(phenoxy)phosphoryl)-L-alaninate], the IC50 is below 100 nM at pY705-STAT3 in PBMC and above 3000 nM against pY641-STAT6 in PBMC (STAT6, PBMC).
As for `CC(C)(C)C(=O)SCCOP(=O)(OCCSC(=O)C(C)(C)C)C(F)c1ccc2sc(C(=O)N[C@H]3CCC[C@H]4CC[C@@H](C(=O)N5CC(c6cnccc6F)C5)N4C3=O)cc2c1` (stereo partly drawn) [Compound 984, S,S′-((((fluoro(2-(((3S,6S,9aS)-3-(3-(4-fluoropyridin-3-yl)azetidine-1-carbonyl)-5-oxooctahydro-1H-pyrrolo[1,2-a]azepin-6-yl)carbamoyl)benzo [b]thiophen-5-yl)methyl)phosphoryl)bis(oxy))bis(ethane-2,1-diyl))bis(2,2-dimethyl-propanethioate)], the IC50 on pY705-STAT3 in PBMC was below 100 nM; on pY641-STAT6 in PBMC (PBMC, read-out: STAT6) it was above 3000 nM.
In the case of `CC(C)CC(=O)SCCOP(=O)(Oc1cccc(C#N)c1)C(F)(F)c1ccc2sc(C(=O)N[C@H]3CCC[C@H]4CC[C@@H](C(=O)N5CC(c6cccnc6)C5)N4C3=O)cc2c1` (stereo partly drawn) [Compound 1008, S-(2-(((3-cyanophenoxy) (difluoro(2-(((3S,6S,9aS)-5-oxo-3-(3-(pyridin-3-yl)azetidine-1-carbonyl)octahydro-1H-pyrrolo[1,2-a]azepin-6-yl)carbamoyl)benzo [b]thiophen-5-yl)methyl)phosphoryl)oxy)ethyl) 3-methylbutanethioate], the IC50 at pY705-STAT3 in PBMC was 100 to 1000 nM; against pY641-STAT6 in PBMC (STAT6, PBMC) it was above 3000 nM.
With `CC(C)C(=O)SCCOP(=O)(OCCSC(=O)C(C)C)C(F)(F)c1ccc2sc(C(=O)N[C@H]3CCC[C@H]4CC[C@@H](C(=O)N5CC(c6cccnc6)C5)N4C3=O)cc2c1` [Compound 1009, S,S′-((((difluoro(2-(((3S,6S,9aS)-5-oxo-3-(3-(pyridin-3-yl)azetidine-1-carbonyl)octahydro-1H-pyrrolo[1,2-a]azepin-6-yl)carbamoyl)benzo [b]thiophen-5-yl)methyl)phosphoryl)bis(oxy))bis(ethane-2,1-diyl)) bis(2-methyl-propanethioate)], the IC50 is below 100 nM at pY705-STAT3 in PBMC and 100 to 1000 nM at pY641-STAT6 in PBMC (PBMC, read-out: STAT6).
